Test results from patent US20260337212A1, “IP4-4,6 SUBSTITUTED DERIVATIVE COMPOUNDS FOR USE IN THE TREATMENT, INHIBITION OF PROGRESSION, AND PREVENTION OF ECTOPIC CALCIFICATION” (SANIFIT THERAPEUTICS, S.A., priority 2022, published 2026).

Assays:
[1] = Rat vitamin D3 model: tissue calcium content (ICP-OES); format: in vivo, Sprague Dawley rat; details: 5, 15, 45 mg/kg s.c. daily D1-D13
Protocol: FIG. 12 represents the mean calcium content (±SD) in Sham rats (no VitD3 treatment) and rats treated with vehicle or Compound 27 (5, 15, and 45 mg/kg) in (A) aorta, (B) heart, (C) femoral artery, (D) carotid arteries, and (E) kidney. For femoral and carotid arteries, the mean of the calcium content in left and right vessels was used. Statistical analysis: One-way ANOVA with Fisher's LSD test for post-hoc comparisons. (#) indicates significant differences vs. sham, (*) indicates significant differences vs vehicle, (§) indicates significant differences vs Compound 27 5 mg/kg (only applies to other Compound 27 doses), (¥) indicates significant differences vs Compound 27 15 mg/kg (only applies to Compound 27 45 mg/kg), p<0.05. N=7-12 animals/group.
The model evaluated the effects of Compound 27 on tissue calcification, blood perfusion, and walking ability in rats for a duration of 13 days. Tissue calcification was induced in groups 2-5 from D1 to D3. Animals induced with calcification were administered placebo or active agent formulations from D1 onwards to assess their effects in preventing calcification. The impact of treatment on tissue calcification, blood perfusion, and walking ability was evaluated. Observations were taken at several points during the treatment from D0 to D13. All animals were weighed every day before treatment.
Fifty-eight male Sprague Dawley (SD) rats (Envigo Corp., Huntingdon, GB) weighing approximately 275-300 g were used. The animals were fed with a standard LASQCdiet® Rod14-H4 diet (LASvendi, Soest, DE). The animals were divided in 5 groups, 10 to 12 animals per group, as follows: • Group 1—Control (sham), 10 animals • Group 2—Physiological saline solution (placebo) daily, 12 animals • Group 3—Compound 27, 5 mg/kg daily, 12 animals • Group 4—Compound 27, 15 mg/kg daily, 12 animals • Group 5—Compound 27, 45 mg/kg daily, 12 animals
Calcification was induced in the animals of groups 2-5 by subcutaneous administration of 120,000 IU/kg vitamin D3 (cholecalciferol, Duphafral D3 1000; Zoetis Inc., Parsippany, NJ, US) in physiological saline 0.9% (w/v) NaCl solution (2 mL/kg) daily from D1 to D3. Animals in group 1 were administered 2 mL/kg of physiological saline solution daily from D1 to D3 via subcutaneous route with no vitamin D3. Animals in group 2 were administered 2 mL/kg of physiological saline solution daily from D1 to D13 via subcutaneous route. Animals in groups 3, 4, and 5 were administered 5 mg/kg, 15 mg/kg, and 45 mg/kg, respectively, of Compound 27 (754.45 g/mol free acid) daily in physiological saline solution (2 mL/kg) from D1 to D13 via subcutaneous route.
All the living animals of groups 1-5 were sacrificed in D13 for determining their Ca values in tissue (i.e., aorta, carotids, femoral, heart, kidney).
The animals were exsanguinated before sacrifice. Their necropsies were performed, and their whole right and left femoral arteries, left and right carotids, aorta, heart, and right kidney were collected for calcium content measurement. The tissues were lyophilized for 24 h and weighed. The lyophilized tissues were then digested using a 1:1 HNO3:HClO4 mixture in a dry bath incubator for 2-4 h at 180° C. The digested tissues were subsequently diluted using ultra-pure Milli-Q water (MilliporeSigma, Merck KGaA, Burlington, MA, US) to a final volume of 5 mL (for femoral and carotid) or 10 mL (for heart, kidney and aorta). Calcium content was quantified via inductively coupled plasma optical emission spectrometry (ICP-OES) using an Optima 7300 DV ICP-OES System spectrometer (PerkinElmer, Inc., Waltham, MA, US) according to the manufacturer's instructions.

[2] = In vitro inhibition of calcium phosphate crystallization in human plasma (spectrophotometric); format: biochemical; details: 0-100 μM, 1.5 mM phosphate, 12.5 mM calcium, pH 7.4, 30 min, rt, read-out: Relative Potency (EC50, inhibition of calcium phosphate crystallization)
Summary of the method: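 Human plasma spiked with compound (0-100 μM), centrifuged, then brought to final 1.5 mM phosphate and 12.5 mM calcium, pH 7.4. Absorbance at 550 nm read every 3 min for 30 min at rt; inhibition from slopes (6-24 min, absorbance vs log time) relative to blank plasma.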

4,6-O-bis(5-acetamidopentyl)-myo-inositol-1,2,3,5-tetrakis(phosphate) octasodium salt [Compound 27]
Inhibition of ectopic calcification in all evaluated tissues ([1]; aorta, carotids, femoral, heart, kidney): inhibits ectopic calcification in all the evaluated tissues | Inhibition of calcification in aorta ([1]; aorta, FIG. 12A): observed at 45 mg/kg | Inhibition of calcification in the carotids ([1]; carotids, FIG. 12D): observed at 45 mg/kg | Inhibition of calcification in the femoral arteries ([1]; femoral arteries, FIG. 12C): dose-response effect from 5 mg/kg | Inhibition of calcification in the heart ([1]; heart, FIG. 12B): dose-response effect from 5 mg/kg | Inhibition of calcification in the kidneys ([1]; kidney, FIG. 12E): dose-response effect from 5 mg/kg | EC50 [2]: ≤ 5 µM
